Reference: PMC10747733, “N-Substituted 2-(Benzenosulfonyl)-1-Carbotioamide Derivatives Exert Antimicrobial and Cytotoxic Effects via Aldehyde Dehydrogenase Pathway: Synthesis, In Silico and In Vitro Studies” (Pharmaceuticals, 2023)
Converted amounts (≈) assume the structure as drawn.

What was measured:
Format in all cases: cell-based
[1] = test system: Klebsiella pneumoniae ATCC 13883; assay: Broth microdilution antimicrobial activity
Source text: (§1) Reference strains of microorganisms that came from American Type Culture Collection (ATCC) (Manassas, VA, USA) were used for this study. The representative Gram-positive bacteria were as follows: Staphylococcus aureus ATCC 25923, Staphylococcus aureus ATCC 29213, Staphylococcus aureus ATCC 43300, Staphylococcus epidermidis ATCC 12228, Enterococcus faecalis ATCC 29212, Micrococcus luteus ATCC 10240, Bacillus subtilis ATCC 6633 and Bacillus cereus ATCC 10876. While, those of Gram-negative bacteria were as follows: Bordetella bronchiseptica ATCC 4617, Escherichia coli ATCC 25922, Klebsiella pneumoniae ATCC 13883, Proteus mirabilis ATCC 12453, Salmonella Typhimurium ATCC 14028 and Pseudomonas aeruginosa ATCC 9027. Moreover, the following fungi belonging to yeasts were used: Candida albicans ATCC 10231, Candida albicans ATCC 2091, Candida parapsilosis ATCC 22019, Candida glabrata ATCC 90030 and Candida krusei ATCC 14243.
(§2) The new compounds WZ1–WZ4 were assayed for both antibacterial and antifungal activity using the broth microdilution method in accordance with the European Committee on Antimicrobial Susceptibility Testing (EUCAST) and Clinical and Laboratory Standards Institute (CLSI) guidelines. The microorganisms were grown at 35 °C for 18–24 h on appropriate media (nutrient agar and Sabouraud for bacteria and fungi, respectively) (BioMaxima S.A., Lublin, Poland). Next, microbial suspensions with an optical density of 0.5 McFarland standard scale (in sterile 0.85% NaCl) were prepared. In turn, the tested compounds were initially diluted at 50 mg/mL in dimethyl sulfoxide (DMSO) and the broth microdilution method was used to assess their minimum inhibitory concentrations (MICs). For these studies, selective broth Mueller-Hinton (MH) (BioMaxima S.A., Lublin, Poland) and RPMI (Roswell Park Memorial Institute) 1640 with MOPS (3-(N-Morpholino)propanesulfonic acid) (Sigma-Aldrich Chemicals, St. Louis, MO, USA) were used for bacteria and fungi, respectively. The antimicrobial effect of compounds WZ1–WZ4 was determined in the concentration range from 2000 to 0.98 µg/mL.
(§3) Then, the microbial suspensions were introduced into each well of the microplate and incubated for 18–24 h at 35 °C. […] The reference drugs ciprofloxacin or vancomycin (against bacteria) and nystatin (against fungi) (Sigma-Aldrich Chemicals, St. Louis, MO, USA) were also used. Next, the values of the minimum bactericidal concentration (MBC) and minimum fungicidal concentration (MFC) of WZ1–WZ4 were assessed. For this purpose, the cultures from each MIC determination well were transferred to a suitable solid medium and incubated under appropriate conditions. The lowest concentrations of compounds without microbial growth were read as MBC or MFC. The studies were performed in triplicate and representative data were gathered.
(§4) In turn, the MBC/MIC or MFC/MIC ratios were used to assess bactericidal/fungicidal (MBC/MIC or MFC/MIC ≤ 4) and bacteriostatic/fungistatic (MBC/MIC or MFC/MIC > 4) effect of these compounds [93].

[2] = test system: Staphylococcus aureus ATCC 29213; assay: Broth microdilution antimicrobial activity; settings: Staphylococcus aureus ATCC 29213
Source text: as §1, §2, §3, §4

[3] = test system: Proteus mirabilis ATCC 12453; assay: Broth microdilution antimicrobial activity
Source text: as §1, §2, §3, §4

[4] = test system: Micrococcus luteus ATCC 10240; assay: Broth microdilution antimicrobial activity
Source text: as §1, §2, §3, §4

[5] = test system: Escherichia coli ATCC 25922; assay: Broth microdilution antimicrobial activity
Source text: as §1, §2, §3, §4

[6] = test system: Staphylococcus epidermidis ATCC 12228; assay: Broth microdilution antimicrobial activity
Source text: as §1, §2, §3, §4

[7] = test system: Bacillus cereus ATCC 10876; assay: Broth microdilution antimicrobial activity
Source text: as §1, §2, §3, §4

[8] = test system: Bordetella bronchiseptica ATCC 4617; assay: Broth microdilution antimicrobial activity
Source text: as §1, §2, §3, §4

[9] = test system: Staphylococcus aureus ATCC 25923; assay: Broth microdilution antimicrobial activity
Source text: as §1, §2, §3, §4

[10] = test system: Salmonella Typhimurium ATCC 14028; assay: Broth microdilution antimicrobial activity
Source text: as §1, §2, §3, §4

[11] = test system: Bacillus subtilis ATCC 6633; assay: Broth microdilution antimicrobial activity
Source text: as §1, §2, §3, §4

[12] = test system: Pseudomonas aeruginosa ATCC 9027; assay: Broth microdilution antimicrobial activity
Source text: as §1, §2, §3, §4

[13] = test system: Staphylococcus aureus ATCC 43300; assay: Broth microdilution antimicrobial activity; settings: Staphylococcus aureus ATCC 43300
Source text: as §1, §2, §3, §4

[14] = test system: Candida albicans ATCC 10231; assay: Broth microdilution antimicrobial activity
Source text: as §1, §2, §3, §4

[15] = test system: Candida glabrata ATCC 90030; assay: Broth microdilution antimicrobial activity
Source text: as §1, §2, §3, §4

[16] = test system: Candida krusei ATCC 14243; assay: Broth microdilution antimicrobial activity
Source text: as §1, §2, §3, §4

[17] = test system: Candida albicans ATCC 2091; assay: Broth microdilution antimicrobial activity
Source text: as §1, §2, §3, §4

[18] = test system: Candida parapsilosis ATCC 22019; assay: Broth microdilution antimicrobial activity
Source text: as §1, §2, §3, §4

[19] = test system: Enterococcus faecalis ATCC 29212; assay: Broth microdilution antimicrobial activity; settings: Enterococcus faecalis ATCC 29212
Source text: as §1, §2, §3, §4

[20] = test system: Erythrocytes from fresh sheep blood; assay: in vitro
Method: The toxicity of WZ1–WZ4 compounds towards red blood cells was tested using the erythrocyte lysis assay (ELA). Erythrocytes from fresh sheep blood (BioMaxima S.A., Poland) were centrifuged and washed with 0.85% NaCl. Next, 100 μL of a 2% suspension of red blood cells in physiological saline was added to the wells of microtiter plate. The double dilutions of compounds WZ1–WZ4 were prepared in the range of 2000–15.62 μg/mL. Appropriate controls were used to assess the hemolytic potential of tested compounds, i.e., 100% lysis of erythrocytes using 4% Triton X-100 (Pol-Aura, Różnowo, Poland) and 0% lysis in saline solution. Next, all sample plates were incubated (1 h at 37 °C), centrifuged for 10 min to separate unlysed red blood cells, and the supernatant was placed in a new plate. The ELA is a biological test by which the lytic response can be measured spectrophotometrically (at a wavelength of 450 nm) by the amount of hemoglobin released. The hemolysis percentage was calculated according to the following equation:(1) % Hemolysis = A450 of test compound treated sample − A450 of buffer treated sample/A450 of 4% Triton X100 treated samples − A450 of buffer treated sample × 100

## O=C(O)c1cn(C2CC2)c2cc(N3CCNCC3)c(F)cc2c1=O [CIP, ciprofloxacin, reference compound]
[1]
  MBC/MIC: 2
[1]; ATCC13883
  MBC: 0.24 µg/mL (≈ 0.724 µM)
  MIC: 0.12 µg/mL (≈ 0.362 µM)
[2]; ATCC29213
  MBC: 0.48 µg/mL (≈ 1.45 µM)
  MIC: 0.48 µg/mL (≈ 1.45 µM)
[2]
  MBC/MIC: 1
[3]
  MBC/MIC: 1
[3]; ATCC12453
  MBC: 0.03 µg/mL (≈ 0.0905 µM)
  MIC: 0.03 µg/mL (≈ 0.0905 µM)
[4]
  MBC/MIC: 2
[4]; ATCC10240
  MBC: 1.95 µg/mL (≈ 5.89 µM)
  MIC: 0.98 µg/mL (≈ 2.96 µM)
[5]
  MBC/MIC: 2
[5]; ATCC25922
  MBC: 0.008 µg/mL (≈ 0.0241 µM)
  MIC: 0.004 µg/mL (≈ 0.0121 µM)
[6]
  MBC/MIC: 1
[6]; ATCC12228
  MBC: 0.12 µg/mL (≈ 0.362 µM)
  MIC: 0.12 µg/mL (≈ 0.362 µM)
[7]
  MBC/MIC: 2
[7]; ATCC10876
  MBC: 0.12 µg/mL (≈ 0.362 µM)
  MIC: 0.06 µg/mL (≈ 0.181 µM)
[8]
  MBC/MIC: 1
[8]; ATCC4617
  MBC: 0.98 µg/mL (≈ 2.96 µM)
  MIC: 0.98 µg/mL (≈ 2.96 µM)
[9]
  MBC/MIC: 1
[9]; ATCC25923
  MBC: 0.48 µg/mL (≈ 1.45 µM)
  MIC: 0.48 µg/mL (≈ 1.45 µM)
[10]
  MBC/MIC: 1
[10]; Salmonella enterica
  MBC: 0.06 µg/mL (≈ 0.181 µM)
  MIC: 0.06 µg/mL (≈ 0.181 µM)
[11]
  MBC/MIC: 1
[11]; ATCC6633
  MBC: 0.03 µg/mL (≈ 0.0905 µM)
  MIC: 0.03 µg/mL (≈ 0.0905 µM)
[12]
  MBC/MIC: 2
[12]; ATCC9027
  MBC: 0.98 µg/mL (≈ 2.96 µM)
  MIC: 0.48 µg/mL (≈ 1.45 µM)
[13]; ATCC43300
  MBC: 0.24 µg/mL (≈ 0.724 µM)
  MIC: 0.24 µg/mL (≈ 0.724 µM)
[13]
  MBC/MIC: 1

## C[C@@H]1[C@H](O)[C@@H](C)/C=C/C=C/CC/C=C/C=C/C=C/C=C/C(O[C@H]2O[C@H](C)[C@@H](O)[C@H](N)[C@@H]2O)CC2O[C@](O)(CC(O)C(O)CCC(O)CC(O)CC(O)CC(=O)O[C@H]1C)CC(O)C2C(=O)O (stereo partly shown) [NY, nystatin, reference compound]
[14]
  MFC: 0.48 µg/mL (≈ 0.518 µM)
  MFC/MIC: 1
  MIC: 0.48 µg/mL (≈ 0.518 µM)
[15]
  MFC: 0.48 µg/mL (≈ 0.518 µM)
  MFC/MIC: 2
  MIC: 0.24 µg/mL (≈ 0.259 µM)
[16]
  MFC: 0.24 µg/mL (≈ 0.259 µM)
  MFC/MIC: 1
  MIC: 0.24 µg/mL (≈ 0.259 µM)
[17]
  MFC: 0.24 µg/mL (≈ 0.259 µM)
  MFC/MIC: 1
  MIC: 0.24 µg/mL (≈ 0.259 µM)
[18]
  MFC: 0.48 µg/mL (≈ 0.518 µM)
  MFC/MIC: 2
  MIC: 0.24 µg/mL (≈ 0.259 µM)

## CN[C@H](CC(C)C)C(=O)N[C@H]1C(=O)N[C@@H](CC(N)=O)C(=O)N[C@H]2C(=O)N[C@H]3C(=O)N[C@H](C(=O)N[C@H](C(=O)O)c4cc(O)cc(O)c4-c4cc3ccc4O)[C@H](O)c3ccc(c(Cl)c3)Oc3cc2cc(c3O[C@@H]2O[C@H](CO)[C@@H](O)[C@H](O)[C@H]2O[C@H]2C[C@](C)(N)[C@H](O)[C@H](C)O2)Oc2ccc(cc2Cl)[C@H]1O [VA, vancomycin, reference compound]
[19]
  MBC: 1.95 µg/mL (≈ 1.35 µM)
  MBC/MIC: 2
  MIC: 0.98 µg/mL (≈ 0.676 µM)

## Triton X-100 [reference compound]
[20]
  erythrocyte lysis: 100%
